From patent publication US8575193B2, “N-substituted tetrahydroisoquinoline/isoindoline hydroxamic acid compounds” (4SC AG, priority 2008, dated 2013)

Tested on: nuclear HeLa extract (mixture of class I and II HDACs)
Test: Fluorimetric HDAC activity assay with nuclear HeLa extract
Format: biochemical, human
Conditions: nuclear HeLa extract inhibitory activity, substrate Ac-NH-GGK(Ac)-AMC 25 μM, 90 min at 30° C.
Protocol: HDAC activity is isolated from nuclear HeLa extracts according to a method original described by Dignam et al. (Nucl. Acids Res. 11, pp 1475, 1983). Briefly, nuclei isolated from HeLa cells (CIL SA, Seneffe, Belgium) are resuspended in buffer C (20 mM Hepes pH 7.9, 25% v:v glycerol, 0.42M NaCl, 1.5 mM MgCl2, 0.2 mM EDTA, 0.5 mM PefaBloc and 0.5 mM DTT) and stirred for 30 min on ice. After centrifugation, the supernatant is dialysed against buffer D (40 mM Tris HCl pH 7.4, 100 mM KCl, 0.2 mM EDTA, 0.5 mM DTT and 25% v:v glycerol) for 5 h at 4° C. After dialysis and centrifugation, the supernatant is stored in aliquots at −80° C. and used for Western blot analysis as well as the enzymatic assay as described in the following.
The HDAC enzyme activity assay is done as described by Wegener et al. (Chem. & Biol. 10, 61-68, 2003). […] After incubation at room temperature for further 40 min, fluorescence is measured using a Wallac Victor 1420 multilabel counter (Ex 355 nm, Em 460 nm) for quantification of AMC (7-amino-4-methylcoumarin) generated by trypsine cleavage of the deacetylated peptide. […] The corresponding pIC50 values of the compounds for HDAC inhibitory activity are determined from the concentration-effect curves by means of non-linear regression (Graphpad Prism software).

| Structure (SMILES) | HeLa nuclear extract [pIC50] (listed as Ex. 15) | HeLa nuclear extract [pIC50] (listed as Ex. 11) |
| --- | --- | --- |
| COc1ccc2[nH]c(C(=O)N3CCc4cc(C(=O)NO)ccc4C3)cc2c1 [Example 15, N-Hydroxy-2-[(5-methoxy-1H-indol-2-yl)carbonyl]-1,2,3,4-tetrahydroisoquinoline-6-carboxamide] | 6.10 |  |
| COCCOCC(=O)N1CCc2cc(C(=O)NO)ccc2C1 [Example 11, N-Hydroxy-2-[(2-methoxyethoxy)acetyl]-1,2,3,4-tetrahydroisoquinoline-6-carboxamide] |  | 4.22 |
